How the values were obtained:
APRT = experiment: Effect of selection media on wild type, APRT-RNAi and APRT knock out cells (survival / cell death); type: cell-based; settings: for Effect of selection medium on cells: RNAi: cells expressing RNAi-constructs directed against APRT; for Effect of selection medium on cells: knock out: cells with APRT inactivated on the chromosomal level; for Effect of selection medium on cells: wild type: gene APRT; on all read-outs here: key: Survival of the cells in the respective selective conditions is marked +; cell death in the respective selective condition is marked −
HPRT = experiment: Effect of selection media on wild type, HPRT-RNAi and HPRT knock out cells (survival / cell death); type: cell-based; settings: for Effect of selection medium on cells: RNAi: cells expressing RNAi-constructs directed against HPRT; for Effect of selection medium on cells: knock out: cells with HPRT inactivated on the chromosomal level; for Effect of selection medium on cells: wild type: gene HPRT
thymidine kinase = experiment: Effect of selection media on wild type, thymidine kinase-RNAi and thymidine kinase knock out cells (survival / cell death); type: cell-based; settings: for Effect of selection medium on cells: RNAi: cells expressing RNAi-constructs directed against thymidine kinase; for Effect of selection medium on cells: knock out: cells with thymidine kinase inactivated on the chromosomal level; for Effect of selection medium on cells: wild type: gene thymidine kinase; on all read-outs here: key: Survival of the cells in the respective selective conditions is marked +; cell death in the respective selective condition is marked −

Nc1nc(F)nc2nc[nH]c12 [2-fluoroadenine]
Effect of selection medium on cells: RNAi (APRT): +
Effect of selection medium on cells: knock out (APRT): +
Effect of selection medium on cells: wild type (APRT): −

Nc1nc2c(ncn2[C@@H]2O[C@H](CO)[C@@H](O)[C@H]2O)c(=S)[nH]1 [6-thioguanosine]
Effect of selection medium on cells: RNAi (HPRT): +
Effect of selection medium on cells: knock out (HPRT): +
Effect of selection medium on cells: wild type (HPRT): −

Nc1ncnc2nn[nH]c12 [8-azaadenine]
Effect of selection medium on cells: RNAi (APRT): +
Effect of selection medium on cells: knock out (APRT): +
Effect of selection medium on cells: wild type (APRT): −

Nc1nc2c(nnn2[C@@H]2O[C@H](CO)[C@@H](O)[C@H]2O)c(=O)[nH]1 [8-azaguanosine]
Effect of selection medium on cells: RNAi (HPRT): +
Effect of selection medium on cells: knock out (HPRT): +
Effect of selection medium on cells: wild type (HPRT): −

O=c1[nH]c(=O)n([C@H]2C[C@H](O)[C@@H](CO)O2)cc1Br [bromodesoxyuridine]
Effect of selection medium on cells: RNAi (thymidine kinase): +
Effect of selection medium on cells: knock out (thymidine kinase): +
Effect of selection medium on cells: wild type (thymidine kinase): −

Nc1nc(N)c2nc[nH]c2n1 [diaminopurine]
Effect of selection medium on cells: RNAi (APRT): +
Effect of selection medium on cells: knock out (APRT): +
Effect of selection medium on cells: wild type (APRT): −

CN(Cc1cnc2nc(N)nc(N)c2n1)c1ccc(C(=O)N[C@@H](CCC(=O)O)C(=O)O)cc1 [methotrexate]
Effect of selection medium on cells: RNAi (DHFR; cells expressing RNAi-constructs directed against DHFR): −
Effect of selection medium on cells: knock out (DHFR; cells with DHFR inactivated on the chromosomal level): −
Effect of selection medium on cells: wild type (DHFR; wild type cells, gene DHFR): +

O=c1[nH]c(=O)n([C@H]2C[C@H](O)[C@@H](CO)O2)cc1C(F)(F)F [trifuorothymidine]
Effect of selection medium on cells: RNAi (thymidine kinase): +
Effect of selection medium on cells: knock out (thymidine kinase): +
Effect of selection medium on cells: wild type (thymidine kinase): −

From US20080120733A1, “Rnai-Based Method for Selecting Transfected Eukaryotic Cells” (GBF-GESELLSCHAFT FUR BIOTECHNOLOGISCHE FORSCHUNG, priority 2004, published 2008)
